Measurements from patent publication US20220363665A1, “QUINOLINE COMPOUNDS FOR THE TREATMENT OF AUTOIMMUNE DISEASE” (Hoffmann-La Roche Inc., priority 2019, published 2022).

Target: T1, human TLR9 (Homo sapiens, UniProt Q9NR96)
T1 construct: host or cells: HEK293 (HEK-Blue hTLR9)
T1 sequence (Q9NR96 26-1032): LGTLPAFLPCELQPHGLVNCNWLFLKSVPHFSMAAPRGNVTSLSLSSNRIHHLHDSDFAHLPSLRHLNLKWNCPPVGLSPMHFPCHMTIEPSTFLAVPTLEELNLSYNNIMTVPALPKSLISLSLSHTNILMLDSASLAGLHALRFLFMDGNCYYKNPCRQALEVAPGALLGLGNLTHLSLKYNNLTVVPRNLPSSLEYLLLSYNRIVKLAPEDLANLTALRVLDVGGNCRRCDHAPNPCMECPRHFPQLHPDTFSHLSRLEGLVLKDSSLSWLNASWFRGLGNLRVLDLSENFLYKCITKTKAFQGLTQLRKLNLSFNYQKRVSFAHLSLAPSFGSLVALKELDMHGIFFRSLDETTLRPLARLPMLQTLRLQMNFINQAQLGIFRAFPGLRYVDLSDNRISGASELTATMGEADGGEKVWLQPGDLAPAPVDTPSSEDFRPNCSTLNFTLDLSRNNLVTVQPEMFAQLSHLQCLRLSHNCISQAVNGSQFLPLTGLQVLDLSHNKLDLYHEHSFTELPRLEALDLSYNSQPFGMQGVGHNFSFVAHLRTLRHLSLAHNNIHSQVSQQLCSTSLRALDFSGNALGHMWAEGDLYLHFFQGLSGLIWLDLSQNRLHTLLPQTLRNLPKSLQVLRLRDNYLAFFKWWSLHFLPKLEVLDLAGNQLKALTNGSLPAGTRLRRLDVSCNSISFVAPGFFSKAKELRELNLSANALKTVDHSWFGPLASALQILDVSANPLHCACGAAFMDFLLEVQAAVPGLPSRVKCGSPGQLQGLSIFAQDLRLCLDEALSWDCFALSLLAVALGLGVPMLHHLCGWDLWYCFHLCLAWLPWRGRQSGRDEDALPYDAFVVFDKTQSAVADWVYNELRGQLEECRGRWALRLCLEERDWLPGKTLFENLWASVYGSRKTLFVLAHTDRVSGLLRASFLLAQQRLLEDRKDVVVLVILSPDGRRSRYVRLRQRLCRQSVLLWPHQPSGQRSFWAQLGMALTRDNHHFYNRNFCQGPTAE
Test: HEK293-Blue-hTLR-9 cells assay (SEAP reporter, ODN2006 stimulation)
Assay type: cell-based
Settings: HEK293-Blue-hTLR9 cells, ODN2006, 20 hrs
Method: The following tests were carried out in order to determine the activity of the compounds of formula (I) in HEK293-Blue-hTLR-7/8/9 cells assay.
HEK293-Blue-hTLR-9 Cells Assay:
A stable HEK293-Blue-hTLR-9 cell line was purchased from InvivoGen (Cat. #. hkb-htlr9, San Diego, Calif., USA). These cells were originally designed for studying the stimulation of human TLR9 by monitoring the activation of NF-κB. A SEAP (secreted embryonic alkaline phosphatase) reporter gene was placed under the control of the […] minimal promoter fused to five NF-κB and AP-1-binding sites. The SEAP was induced by activating NF-κB and AP-1 via stimulating HEK-Blue hTLR9 cells with TLR9 ligands. Therefore the reporter expression was declined by TLR9 antagonist under the stimulation of a ligand, such as ODN2006 (Cat. #: tlrl-2006-1, Invivogen, San Diego, Calif., USA), for incubation of 20 hrs. The cell culture supernatant SEAP reporter activity was determined using QUANTI-Blue™ kit (Cat. #: rep-qbl, Invivogen, San Diego, Calif., USA) at a wavelength of 640 nm, a detection medium that turns purple or blue in the presence of alkaline phosphatase.
HEK293-Blue-hTLR9 cells were incubated at a density of […] cells/mL in a volume of 170 μL, in a 96-well plate in Dulbecco's Modified Eagle's medium (DMEM) containing 4.5 g/L glucose, 50 U/mL penicillin, […], […], 2 mM L-glutamine, 10% (v/v) heat-inactivated fetal bovine serum with addition of 20 μL test compound in a serial dilution in the presence of final DMSO at 1% and 10 μL of 20 uM ODN2006 in above DMEM, perform incubation under 37° C. in a CO2 incubator for 20 hrs. Then 20 μL of the supernatant from each well was incubated with 180 μL Quanti-blue substrate solution at 37° C. for 2 hrs and the absorbance was read at 620˜655 nm using a spectrophotometer. The signalling pathway that TLR9 activation leads to downstream NF-κB activation has been widely accepted, and therefore similar reporter assay was modified for evaluating TLR9 antagonist.

Row | IC50 | SMILES
1 | 28.1 µM | C[C@@H]1CN(c2ccc(C(F)(F)F)c3ncccc23)C[C@H](C(=O)NC[C@@H]2C[C@@H](F)CN2)O1 [Example 27, (2R,6R)-N-[[(2S,4R)-4-fluoropyrrolidin-2-yl]methyl]-6-methyl-4-[8-(trifluoromethyl)-5-quinolyl]morpholine-2-carboxamide]
2 | > 100 µM | C[C@@H]1CN(c2ccc(C(F)(F)F)c3ncccc23)C[C@H](C(=O)NC2CNCC(F)(F)C2)O1 (stereo partly drawn) [Example 28, (2R,6R)-N-(5,5-difluoro-3-piperidyl)-6-methyl-4-[8-(trifluoromethyl)-5-quinolyl]morpholine-2-carboxamide]
3 | > 100 µM | C[C@@H]1CN(c2ccc(C(F)(F)F)c3ncccc23)C[C@H](C(=O)NCC2CNCC2(F)F)O1 (stereo partly drawn) [Example 29, (2R,6R)-N-[(4,4-difluoropyrrolidin-3-yl)methyl]-6-methyl-4-[8-(trifluoromethyl)-5-quinolyl]morpholine-2-carboxamide]
4 | > 100 µM | C[C@@H]1CN(c2ccc(C(F)(F)F)c3ncccc23)C[C@H](C(=O)NC[C@@H]2CC(F)(F)CN2)O1 [Example 30]
5 | 9.2 µM | C[C@@H]1CN(c2ccc(C(F)(F)F)c3ncccc23)C[C@H](C(=O)NC2C3CCC2CNC3)O1 (stereo partly drawn) [Example 31, (2R,6R)-N-(3-azabicyclo[3.2.1]octan-8-yl)-6-methyl-4-[8-(trifluoromethyl)-5-quinolyl]morpholine-2-carboxamide]
6 | 3.7 µM | C[C@@H]1CN(c2ccc(C(F)(F)F)c3ncccc23)C[C@H](C(=O)N2CCC3(CCNCC3)CC2)O1 [Example 32, 3,9-diazaspiro[5.5]undecan-3-yl-[(2R,6R)-6-methyl-4-[8-(trifluoromethyl)-5-quinolyl]morpholin-2-yl]methanone]
7 | 12.3 µM | C[C@@H]1CN(c2ccc(C(F)(F)F)c3ncccc23)C[C@H](C(=O)N2CCC3(CCNC3)C2)O1 (some centres unmarked) [Example 36]
8 | 7.8 µM | C[C@@H]1CN(c2ccc(C(F)(F)F)c3ncccc23)C[C@H](C(=O)NC2CC3CNCC(C3)C2)O1 (stereo partly drawn) [Example 37, (2R,6R)-N-(3-azabicyclo[3.3.1]nonan-7-yl)-6-methyl-4-[8-(trifluoromethyl)-5-quinolyl]morpholine-2-carboxamide]
9 | 6 µM | C[C@@H]1CN(c2ccc(I)c3ncccc23)C[C@H](C(=O)NC2CCN(C)CC2)O1 [Example 38, (2R,6R)-4-(8-iodo-5-quinolyl)-6-methyl-N-(1-methyl-4-piperidyl)morpholine-2-carboxamide]
10 | 35.8 µM | C[C@@H]1CN(c2ccc(I)c3ncccc23)C[C@H](C(=O)NCC2CN(C)CCO2)O1 (stereo partly drawn) [Example 39, (2R,6R)-4-(8-iodo-5-quinolyl)-6-methyl-N-[(4-methylmorpholin-2-yl)methyl]morpholine-2-carboxamide]
11 | 22.4 µM | C[C@@H]1CN(c2ccc(I)c3ncccc23)C[C@H](C(=O)NC2CNCC2F)O1 (stereo partly drawn) [Example 40, cis-(2R,6R)-N-[4-fluoropyrrolidin-3-yl]-4-(8-iodo-5-quinolyl)-6-methyl-morpholine-2-carboxamide]
12 | 23.2 µM | C[C@@H]1CN(c2ccc(Br)c3ncccc23)C[C@H](C(=O)NC2CNCC2F)O1 (stereo partly drawn) [Example 41, cis-(2R,6R)-4-(8-bromo-5-quinolyl)-N-[4-fluoropyrrolidin-3-yl]-6-methyl-morpholine-2-carboxamide]
13 | 10.6 µM | C[C@@H]1CN(c2ccc(Br)c3ncccc23)C[C@H](C(=O)NC2CCN(C)CC2)O1 [Example 42, (2R,6R)-4-(8-bromo-5-quinolyl)-6-methyl-N-(1-methyl-4-piperidyl)morpholine-2-carboxamide]
14 | 12.3 µM | C#Cc1ccc(N2C[C@@H](C)O[C@@H](C(=O)NC3CCN(C)CC3)C2)c2cccnc12 [Example 43, (2R,6R)-4-(8-ethynyl-5-quinolyl)-6-methyl-N-(1-methyl-4-piperidyl)morpholine-2-carboxamide]
15 | 15.7 µM | C[C@@H]1CN(c2ccc(C(F)(F)F)c3ncccc23)C[C@H](C(=O)NC2C[C@H]3C[C@@H]2CN3)O1 (some centres unmarked) [Example 44]

The next lines start with the molecule.

Row | SMILES | IC50
16 | Cc1ccc(N2C[C@@H](C)O[C@@H](C(=O)NCC3CN(C)CCO3)C2)c2cccnc12 (stereo partly drawn) [Example 17, (2R,6R)-6-methyl-N-[(4-methylmorpholin-2-yl)methyl]-4-(8-methyl-5-quinolyl)morpholine-2-carboxamide] | > 100 µM
17 | C[C@@H]1CN(c2ccc([N+](=O)[O-])c3ncccc23)C[C@H](C(=O)NCC2CN(C)CCO2)O1 (stereo partly drawn) [Example 18, (2R,6R)-6-methyl-N-[(4-methylmorpholin-2-yl)methyl]-4-(8-nitro-5-quinolyl)morpholine-2-carboxamide] | 54.8 µM
18 | C[C@@H]1CN(c2ccc([N+](=O)[O-])c3ncccc23)C[C@H](C(=O)N[C@@H]2CNC[C@@H]2F)O1 [Example 19, cis-(2R,6R)-N-[41-fluoropyrrolidin-3-yl]-6-methyl-4-(8-nitro-5-quinolyl)morpholine-2-carboxamide] | 50.7 µM
19 | C[C@@H]1CN(c2ccc([N+](=O)[O-])c3ncccc23)C[C@H](C(=O)NC2CCN(C)CC2)O1 [Example 20, (2R,6R)-6-methyl-N-(1-methyl-4-piperidyl)-4-(8-nitro-5-quinolyl)morpholine-2-carboxamide] | 14.9 µM
20 | Cc1ccc(N2C[C@@H](C)O[C@@H](C(=O)N[C@@H]3CNC[C@@H]3F)C2)c2cccnc12 [Example 21, cis-(2R,6R)-N-14-fluoropyrrolidin-3-yl1-6-methyl-4-(8-methyl-5-quinolyl)morpholine-2carboxamide] | 38 µM
21 | C[C@@H]1CN(c2ccc(Cl)c3ncccc23)C[C@H](C(=O)N[C@H]2CNC[C@H]2F)O1 [Example 22, (2R,6R)-4-(8-chloro-5-quinolyl)-N-[(3S,4R)-4-fluoropyrrolidin-3-yl]-6-methyl-morpholine-2-carboxamide] | 37 µM
22 | C[C@H]1C[C@@H](N)CN(c2ccc(Cl)c3ncccc23)C1 [Example 23, (3R,5S)-1-(8-chloro-5-quinolyl)-5-methyl-piperidin-3-amine] | 7 µM
23 | C[C@@H]1CN(c2ccc(Cl)c3ncccc23)C[C@H](C(=O)NC2CCN(C)CC2)O1 [Example 24, (2R,6R)-4-(8-chloro-5-quinolyI)-6-methyl-N-(1-methyl-4-piperidyl)morpholine-2-carboxamide] | 23.7 µM
24 | C[C@@H]1CN(c2ccc(Cl)c3ncccc23)C[C@H](C(=O)NC2CCCNCC2)O1 (stereo partly drawn) [Example 25, (2R,6R)-N-(azepan-4-yl)-4-(8-chloro-5-quinolyl)-6-methyl-morpholine-2-carboxamide] | 12.4 µM
25 | C[C@@H]1CN(c2ccc(Cl)c3ncccc23)C[C@H](C(=O)NCC2CN(C)CCO2)O1 (stereo partly drawn) [Example 26, (2R,6R)-4-(8-chloro-5-quinolyl)-6-methyl-N-[(4-methylmorpholin-2-yl)methyl]morpholine-2-carboxamide] | 46 µM
26 | C[C@@H]1CN(c2ccc(C(F)(F)F)c3ncccc23)C[C@H](C(=O)NC2CC3COCC(C2)N3)O1 (stereo partly drawn) [Example 33, (2R,6R)-6-methyl-N-(3-oxa-9-azabicyclo[3.3.1]nonan-7-yl)-4-[8-(trifluoromethyl)-5-quinolyl]morpholine-2-carboxamide] | 23.6 µM
